Reference: publication PMC8067754, “Active Transport of Hepatotoxic Pyrrolizidine Alkaloids in HepaRG Cells” (International Journal of Molecular Sciences, 2021)
Several values for one entry are separate records, joined by “and”; a condition that tells them apart may be missing. Equal values may be shown once.

Legend:
SLC22A1 = molecular target: T1, SLC22A1 (Homo sapiens, UniProt O15245); test: ASP+ (SLC22A1 substrate) uptake measurement in HepaRG cells; type: cell-based; details: for fluorescence [%], MW [%]: solv ctrl = 100; for reduction of ASP+ (SLC22A1 substrate) uptake: Qu 100 µM, TEA 3 mM, 1 µM ASP+
T1 construct: For measuring the uptake of ASP^+ in HepaRG cells incubated with PAs; endogenous in cells; host or cells: differentiated HepaRG cells (human hepatoma)
T1 sequence (O15245 1-554): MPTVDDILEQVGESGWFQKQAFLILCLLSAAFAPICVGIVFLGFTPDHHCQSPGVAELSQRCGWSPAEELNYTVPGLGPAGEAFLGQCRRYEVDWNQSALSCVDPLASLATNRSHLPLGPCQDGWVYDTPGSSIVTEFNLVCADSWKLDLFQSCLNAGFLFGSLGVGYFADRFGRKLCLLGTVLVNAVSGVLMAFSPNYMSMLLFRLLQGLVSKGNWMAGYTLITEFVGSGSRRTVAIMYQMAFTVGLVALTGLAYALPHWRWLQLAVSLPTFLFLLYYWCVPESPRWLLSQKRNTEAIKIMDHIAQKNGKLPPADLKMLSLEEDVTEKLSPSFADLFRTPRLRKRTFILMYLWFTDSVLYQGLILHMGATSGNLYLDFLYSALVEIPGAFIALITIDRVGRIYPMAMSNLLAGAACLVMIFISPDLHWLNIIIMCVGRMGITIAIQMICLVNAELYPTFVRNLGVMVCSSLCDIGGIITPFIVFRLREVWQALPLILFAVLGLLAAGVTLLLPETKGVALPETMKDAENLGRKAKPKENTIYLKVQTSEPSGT
Method: ASP^+ is an organic cationic mitochondrial dye that only fluoresces inside cells so that fluorescence measured in the cell culture medium can be neglected. […] In parallel, cells were incubated with Qu (100 µM) and TEA (3 mM) as mentioned in Section 4.3. After 24 h, cells were incubated with 1 µM ASP^+ in Hanks’ balanced salt solution (HBSS, Sigma-Aldrich, Taufkirchen, Germany) at 37 °C. Fluorescence was measured after 20 min at ASP^+-specific wavelength (λex = 475 nm and λem = 605 nm) on a TecanM200Pro spectrometer (Tecan Group Ltd., Männedorf, Switzerland) according to Ahlin et al., (2008).

HepaRG cells [1] = test: Cell viability (MTT assay) of HepaRG cells with and without transporter inhibitors; type: cell-based, human; details: HepaRG, 0.01% Triton X-100 positive control; listed as pos ctrl
Method: (§1) In the case of TEA, cells were pre-incubated 24 h prior to PA treatment. The inhibitors were applied anew at PA incubation.
(§2) To analyze the cytotoxic effects of PAs on HepaRG cells with non-inhibited and inhibited hepatic transporters, the cells were seeded at a density of 9000 cells per well in the inner 60 wells of a 96-well plate and cultivated as described in Section 4.2. After four weeks of cultivation, FBS concentration in the cell culture medium was reduced to 2% for 48 h prior incubation. Thereby, inhibitory effects of peptide growth factors from the FBS on xenobiotic-metabolizing enzymes were minimized. […] The cells were pre-incubated with pharmacological inhibitors as described in Section 4.3. […] Cell viability was analyzed via the MTT test. 10 µl MTT reagent (5 mg/mL MTT dissolved in phosphate-buffered saline, PBS) was added per well and incubated for 1 h at 37 °C. The supernatant was discarded, and the violet formazan crystals dissolved in 130 µL desorption solution (0.7% sodium dodecyl sulfate in propan-2-ol). After shaking for 20 min (under protection from light), absorbance was measured on a TecanM200Pro spectrometer (Tecan Group Ltd., Männedorf, Switzerland) at a wavelength of 570 nm, along with a reference wavelength of 630 nm.

HepaRG cells [2] = test: PA and PANO content in cell culture medium of HepaRG cells upon pharmacological transporter inhibition (LC-MS/MS); type: in vitro ADME, human; details: HepaRG, 2.5 µM PA, 4, 8, 24 h; CsA 10 µM, Ko143 5 µM, MK-571 50 µM, Qu 100 µM, TEA 3 mM
Method: as §1
(§3) In order to measure time-dependent depletion of PA and PANO content in cell culture medium, cells were seeded at a density of 0.2 × 10^6 cells per well in a 6-well plate and cultivated as described in Section 4.2. After four weeks of cultivation, cells were adapted to serum-free medium and medium substituted with insulin, transferrin, selenium (ITS) serum extender (Capricorn Scientific, Ebsdorfergrund, Germany) 48 h prior to PA incubation for optimal LC-MS/MS measurements. […] Samples were taken after 2 h, 4 h, 8 h and 24 h.
(§4) Briefly, chromatographic separation of PA/PANO analytes was achieved on a 50 × 2.1 mm Kinetex ™ 2.6 μm CoreShell EVO C18 100 Å column protected by a SecurityGuard ™ ULTRA EVO C 18 2.1 mm guard column (both Phenomenex, Aschaffenburg, Germany) at a flow rate of 0.4 mL/min on a Shimadzu high performance liquid chromatography (HPLC) apparatus (LC-20AB, SIL-20AC HT, CTO-20AC, CBM-20A, Duisburg, Germany) coupled to an API4000 triple quadrupole MS (Sciex, Darmstadt, Germany). The following MS parameters were used for measurements in positive electrospray ionisation (ESI+) mode: ionisation voltage 2500 V, nebuliser gas 50 psi, heating gas 50 psi, curtain gas 30 psi, temperature 600 °C, collision gas level 7. The substance specific parameters are summarized in Kaltner et al. 2019 [79].

[3] = Cell viability (MTT assay) of HepaRG cells with and without transporter inhibitors; type: cell-based, human; details: human, HepaRG cells, HepaRG, no PA, inhibitor alone 24 h: CsA 10 µM, Ko143 5 µM, MK571 50 µM, Qu 100 µM, TEA 3 mM; read-out: Cell viability (MTT), percent of solvent control, Mean [%]
Method: as §1, §2

HepaRG cells [4] = test: Time-dependent PA depletion and PANO formation in cell culture medium of HepaRG cells at 37 °C and 4 °C (LC-MS/MS); details: for PA content in cell culture medium, Mean [%]: 700 nM PA, percent of initial PA concentration
Method: as §3, §4

## retrorsine
SLC22A1; 1 µM
  fluorescence [%], MW [%]: 89.2606%
SLC22A1; 10 µM
  fluorescence [%], MW [%]: 46.6068%
SLC22A1; 50 µM
  fluorescence [%], MW [%]: 25.7608%
SLC22A1; 100 µM
  fluorescence [%], MW [%]: 25.133%
SLC22A1; 250 µM
  fluorescence [%], MW [%]: 21.5057%
SLC22A1; HepaRG
  interaction with SLC22A1: both inhibitors and substrates
SLC22A1; HepaRG, 24 h
  minimum concentration inhibiting uptake of the SLC22A1-specific substrate ASP+: 10 µM

## Triton X-100 [reference compound]
HepaRG cells [1]
  Cell viability (MTT), percent of solvent control: 2.774%

## C=C[C@H]1C[N@@]2CC[C@H]1C[C@@H]2[C@@H](O)c1ccnc2ccc(OC)cc12 [Qu, quinidine]
HepaRG cells [2]
  effect of inhibitor on retrorsine and senecionine uptake and PANO formation: striking effect on both retrorsine and senecionine uptake at all time points
[3]
  viability at 24 h: 87.2%
SLC22A1; 100 µM
  fluorescence [%], MW [%]: 82.7588%
SLC22A1; HepaRG, 24 h
  reduction of ASP+ (SLC22A1 substrate) uptake: 18%

## C/C=C(/C)C(=O)O[C@@H]1CCN2CC=C(COC(=O)[C@@](O)([C@H](C)O)C(C)(C)O)[C@H]12 [Echimidine, echimidine]
HepaRG cells [4]; HepaRG, 4 °C (cold), 4h
  PA content in cell culture medium, Mean [%]: 98.8433%
HepaRG cells [4]; HepaRG, 4 °C (cold), 24h
  PA content in cell culture medium, Mean [%]: 89.3074%
HepaRG cells [4]; HepaRG, 37 °C (warm), 2h
  PA content in cell culture medium, Mean [%]: 85.2823%
HepaRG cells [4]; HepaRG, 37 °C (warm), 4h
  PA content in cell culture medium, Mean [%]: 68.4318%
HepaRG cells [4]; HepaRG, 37 °C (warm), 8h
  PA content in cell culture medium, Mean [%]: 40.2531%
HepaRG cells [4]; HepaRG, 37 °C (warm), 24h
  PA content in cell culture medium, Mean [%]: 3.384%
HepaRG cells [4]; HepaRG, Figure 2a, toxicity grading with ref 41
  uptake and toxicity (grading): medium
HepaRG cells [4]; cold, 0h
  PA in medium, Mean [%]: 100%
  PA in medium, single replicates (repl.): 100%
HepaRG cells [4]; cold, 2h
  PA in medium, Mean [%]: 97.014%
  PA in medium, single replicates (repl.): 86.5736%
HepaRG cells [4]; cold, 4h
  PA in medium, Mean [%]: 92.1476%
  PA in medium, single replicates (repl.): 83.0216% and 84.3494%
HepaRG cells [4]; cold, 8h
  PA in medium, Mean [%]: 94.8515%
  PA in medium, single replicates (repl.): 82.9788% and 110.397%
HepaRG cells [4]; cold, 24h
  PA in medium, Mean [%]: 82.2598%
  PA in medium, single replicates (repl.): 57.2342% and 76.5517%
HepaRG cells [4]; warm, 0h
  PA in medium, Mean [%]: 100%
  PA in medium, single replicates (repl.): 100%
HepaRG cells [4]; warm, 2h
  PA in medium, Mean [%]: 80.9264%
  PA in medium, single replicates (repl.): 77.0539% and 95.3255%
HepaRG cells [4]; warm, 4h
  PA in medium, Mean [%]: 64.0995%
  PA in medium, single replicates (repl.): 50.2783% and 58.3297% and 83.6904%
HepaRG cells [4]; warm, 8h
  PA in medium, Mean [%]: 36.9411%
  PA in medium, single replicates (repl.): 23.0433% and 32.0944% and 55.6854%
HepaRG cells [4]; warm, 24h
  PA in medium, Mean [%]: 2.921%
  PA in medium, single replicates (repl.): 0.7358% and 1.728% and 6.298%

## C/C=C(/C)C(=O)O[C@@H]1CC[N+]2([O-])CC=C(COC(=O)[C@@](O)([C@H](C)O)C(C)(C)O)[C@H]12 (stereo partly drawn) [echimidine N-oxide]
HepaRG cells [4]; HepaRG, 37 °C, 700 nM parent PA, up to 24 h
  PANO formation in cell culture medium: increased with time

## CC[N+](CC)(CC)CC [TEA, tetraethylammonium bromide]
HepaRG cells [2]
  effect of inhibitor on retrorsine and senecionine uptake and PANO formation: significantly reduced retrorsine uptake only after 8 and 24 h and senecionine uptake only after 8 h
[3]
  viability at 24 h: 84.5%
SLC22A1; 3mM
  fluorescence [%], MW [%]: 36.1156%
SLC22A1; HepaRG, 24 h
  reduction of ASP+ (SLC22A1 substrate) uptake: up to 64%

## CN(C)C(=O)CCSC(SCCC(=O)O)c1cccc(/C=C/c2ccc3ccc(Cl)cc3n2)c1 (stereo not drawn) [MK-571, reference compound]
HepaRG cells [2]
  effect of inhibitor on retrorsine and senecionine uptake and PANO formation: decelerated retrorsine and senecionine uptake and PANO excretion, but to a lesser extent than CsA
[3]
  viability at 24 h: 106%

## CC(C)[C@](O)(C(=O)OCC1=CCN2CC[C@@H](O)[C@@H]12)[C@@H](C)O [Lycopsamine, lycopsamine]
HepaRG cells [4]; HepaRG, 4 °C (cold), 0h
  PA content in cell culture medium, Mean [%]: 115.66%
HepaRG cells [4]; HepaRG, 4 °C (cold), 2h
  PA content in cell culture medium, Mean [%]: 114.666%
HepaRG cells [4]; HepaRG, 37 °C (warm), 2h
  PA content in cell culture medium, Mean [%]: 110.255%
HepaRG cells [4]; HepaRG, 37 °C (warm), 4h
  PA content in cell culture medium, Mean [%]: 110.221%
HepaRG cells [4]; HepaRG, 37 °C, after 24 h, 700 nM
  reduction of PA content in the supernatant: only little reduction
HepaRG cells [4]; cold, 0h
  PA in medium, Mean [%]: 100%
  PA in medium, single replicates (repl.): 100%
HepaRG cells [4]; cold, 2h
  PA in medium, Mean [%]: 98.8899%
  PA in medium, single replicates (repl.): 94.3912% and 95.7309%
HepaRG cells [4]; cold, 4h
  PA in medium, Mean [%]: 96.1322%
  PA in medium, single replicates (repl.): 91.7949% and 100.05%
HepaRG cells [4]; cold, 8h
  PA in medium, Mean [%]: 96.74%
  PA in medium, single replicates (repl.): 94.6446% and 94.7892% and 95.0549%
HepaRG cells [4]; cold, 24h
  PA in medium, single replicates (repl.): 89.7134% and 94.6663% and 94.1752% and 95.3538%
HepaRG cells [4]; warm, 0h
  PA in medium, Mean [%]: 100%
  PA in medium, single replicates (repl.): 100%
HepaRG cells [4]; warm, 2h
  PA in medium, Mean [%]: 96.1576%
  PA in medium, single replicates (repl.): 89.3775%
HepaRG cells [4]; warm, 4h
  PA in medium, Mean [%]: 95.7481%
  PA in medium, single replicates (repl.): 96.6594%
HepaRG cells [4]; warm, 8h
  PA in medium, Mean [%]: 94.2429%
  PA in medium, single replicates (repl.): 86.6726% and 92.5981%
HepaRG cells [4]; warm, 24h
  PA in medium, single replicates (repl.): 92.6515%
